Results: patent publication US6673812B1, “Preventives/remedies for glaucoma” (Senju Pharmaceutical Co., Ltd., priority 1998, dated 2004)

Test system: Japanese white rabbits
Test: Ophthalmic disorder caused by 8-time-a-day instillation to white rabbits: macroscopic observation of anterior segment of the eye
Assay type: in vivo, rabbit
Parameters: scale not given here
Details: mean of three eyes
Experimental: The test drugs, Compound A and Compound C, were each dissolved in the following base at a concentration of 0.125, 0.25, 0.5 and 1.0% and adjusted to pH 7 for use in this experiment. [table] Japanese white rabbits (body weight about 2 kg) purchased from Japan Laboratory Animals, INC. were used. These animals were bred in a breeding chamber set to temperature 23±3° C., humidity 55±10% and fed on limited amount of 100 g a day of a solid feed (Labo R Stock, Nihon-Nosan Kogyo K.K.). They were allowed free access to tap water. Instillation: Using a micropipet, each test drug (100 μl) was instilled into the right eye of each animal 8 times at one hour intervals. Into the left eye was instilled a base in the same manner. Observation: anterior segment of the eye was macroscopically observed before instillation and 30 min after 2nd, 4th, 6th and 8th administrations, according to the macroscopic criteria for ocular lesions as shown in Table 1 (Naruyuki Fukui, […] no Rinshou 4, 277-289, 1970). In addition, corneal staining spot was observed before instillation and after 8th administration. [table]

[1] = 0.125%, 30 min after 2nd instillation
[2] = 0.125%, 30 min after 4th instillation
[3] = 0.125%, 30 min after 6th instillation
[4] = 0.125%, 30 min after 8th instillation
[5] = 0.25%, 30 min after 2nd instillation
[6] = 0.25%, 30 min after 4th instillation
[7] = 0.25%, 30 min after 6th instillation
[8] = 0.25%, 30 min after 8th instillation

C[C@@H](N)c1ccc(C(=O)Nc2ccncc2)cc1.Cl.Cl [Compound C, (R)-(+)-N-(4-pyridyl)-4-(1-aminoethyl)benzamide 2HCl]
Score of ocular lesions: Conjunctiva Bulbar redness [1]: 0
Score of ocular lesions: Conjunctiva Discharge [1]: 0
Score of ocular lesions: Conjunctiva Nictitating membrane [1]: 0
Score of ocular lesions: Conjunctiva Palpebral edema [1]: 0
Score of ocular lesions: Conjunctiva Palpebral redness [1]: 0
Score of ocular lesions: Cornea Area [1]: 0
Score of ocular lesions: Cornea Degree [1]: 0
Score of ocular lesions: Iris Values [1]: 0
Score of ocular lesions: Total score [1]: 0
Score of ocular lesions: Conjunctiva Bulbar redness [2]: 0.50
Score of ocular lesions: Conjunctiva Discharge [2]: 0.17
Score of ocular lesions: Conjunctiva Nictitating membrane [2]: 0.33
Score of ocular lesions: Conjunctiva Palpebral edema [2]: 0
Score of ocular lesions: Conjunctiva Palpebral redness [2]: 0
Score of ocular lesions: Cornea Area [2]: 0
Score of ocular lesions: Cornea Degree [2]: 0
Score of ocular lesions: Iris Values [2]: 0
Score of ocular lesions: Total score [2]: 0.83
Score of ocular lesions: Conjunctiva Bulbar redness [3]: 0.17
Score of ocular lesions: Conjunctiva Discharge [3]: 0.50
Score of ocular lesions: Conjunctiva Nictitating membrane [3]: 0.33
Score of ocular lesions: Conjunctiva Palpebral edema [3]: 0.17
Score of ocular lesions: Conjunctiva Palpebral redness [3]: 0.17
Score of ocular lesions: Cornea Area [3]: 0
Score of ocular lesions: Cornea Degree [3]: 0
Score of ocular lesions: Iris Values [3]: 0
Score of ocular lesions: Total score [3]: 0.84
Score of ocular lesions: Conjunctiva Bulbar redness [4]: 0.50
Score of ocular lesions: Conjunctiva Discharge [4]: 0
Score of ocular lesions: Conjunctiva Nictitating membrane [4]: 0.50
Score of ocular lesions: Conjunctiva Palpebral edema [4]: 0.33
Score of ocular lesions: Conjunctiva Palpebral redness [4]: 0.33
Score of ocular lesions: Cornea Area [4]: 0
Score of ocular lesions: Cornea Degree [4]: 0
Score of ocular lesions: Iris Values [4]: 0
Score of ocular lesions: Total score [4]: 1.66
Score of ocular lesions: Conjunctiva Bulbar redness (0.125%, Before instillation): 0
Score of ocular lesions: Conjunctiva Discharge (0.125%, Before instillation): 0
Score of ocular lesions: Conjunctiva Nictitating membrane (0.125%, Before instillation): 0
Score of ocular lesions: Conjunctiva Palpebral edema (0.125%, Before instillation): 0
Score of ocular lesions: Conjunctiva Palpebral redness (0.125%, Before instillation): 0
Score of ocular lesions: Cornea Area (0.125%, Before instillation): 0
Score of ocular lesions: Cornea Degree (0.125%, Before instillation): 0
Score of ocular lesions: Iris Values (0.125%, Before instillation): 0
Score of ocular lesions: Total score (0.125%, Before instillation): 0
Score of ocular lesions: Conjunctiva Bulbar redness [5]: 0.33
Score of ocular lesions: Conjunctiva Discharge [5]: 0
Score of ocular lesions: Conjunctiva Nictitating membrane [5]: 0.33
Score of ocular lesions: Conjunctiva Palpebral edema [5]: 0
Score of ocular lesions: Conjunctiva Palpebral redness [5]: 0
Score of ocular lesions: Cornea Area [5]: 0
Score of ocular lesions: Cornea Degree [5]: 0
Score of ocular lesions: Iris Values [5]: 0
Score of ocular lesions: Total score [5]: 0.66
Score of ocular lesions: Conjunctiva Bulbar redness [6]: 0.33
Score of ocular lesions: Conjunctiva Discharge [6]: 0
Score of ocular lesions: Conjunctiva Nictitating membrane [6]: 0.50
Score of ocular lesions: Conjunctiva Palpebral edema [6]: 0
Score of ocular lesions: Conjunctiva Palpebral redness [6]: 0.33
Score of ocular lesions: Cornea Area [6]: 0
Score of ocular lesions: Cornea Degree [6]: 0
Score of ocular lesions: Iris Values [6]: 0
Score of ocular lesions: Total score [6]: 1.50
Score of ocular lesions: Conjunctiva Bulbar redness [7]: 0.50
Score of ocular lesions: Conjunctiva Discharge [7]: 0.67
Score of ocular lesions: Conjunctiva Nictitating membrane [7]: 0.33
Score of ocular lesions: Conjunctiva Palpebral edema [7]: 0.17
Score of ocular lesions: Conjunctiva Palpebral redness [7]: 0.33
Score of ocular lesions: Cornea Area [7]: 0
Score of ocular lesions: Cornea Degree [7]: 0
Score of ocular lesions: Iris Values [7]: 0
Score of ocular lesions: Total score [7]: 2.83
Score of ocular lesions: Conjunctiva Bulbar redness [8]: 0.67
Score of ocular lesions: Conjunctiva Discharge [8]: 1.00
Score of ocular lesions: Conjunctiva Nictitating membrane [8]: 1.33
Score of ocular lesions: Conjunctiva Palpebral edema [8]: 0
Score of ocular lesions: Conjunctiva Palpebral redness [8]: 0
Score of ocular lesions: Cornea Area [8]: 0
Score of ocular lesions: Cornea Degree [8]: 0
Score of ocular lesions: Iris Values [8]: 0
Score of ocular lesions: Total score [8]: 3.00
Score of ocular lesions: Conjunctiva Bulbar redness (0.25%, Before instillation): 0
Score of ocular lesions: Conjunctiva Discharge (0.25%, Before instillation): 0
Score of ocular lesions: Conjunctiva Nictitating membrane (0.25%, Before instillation): 0
Score of ocular lesions: Conjunctiva Palpebral edema (0.25%, Before instillation): 0
Score of ocular lesions: Conjunctiva Palpebral redness (0.25%, Before instillation): 0
Score of ocular lesions: Cornea Area (0.25%, Before instillation): 0
Score of ocular lesions: Cornea Degree (0.25%, Before instillation): 0
Score of ocular lesions: Iris Values (0.25%, Before instillation): 0
Score of ocular lesions: Total score (0.25%, Before instillation): 0
